Experimental findings from patent publication US20250161312A1, “A METHOD FOR THE TREATMENT OF CHEMOTHERAPEUTIC DRUG-INDUCED NEPHROTOXICITY” (INSTITUT NATIONAL DE LA SANTÉ ET DE LA RECHERCHE MÉDICALE, priority 2022, published 2025) are described below.

The subject of one test is C57BL6/J mice. In words: Acute cisplatin-induced kidney injury model. It is filed as in vivo.
A further test relates to RPTEC/hTERT cells. Description: Red Oil staining of RPTEC/hTERT cells. In kind it is cell-based, human. The note with it: cisplatin 50 μM, 25 μM KW-6002, 48 hours. As for the experimental part: FIG. 6. KW6002 alleviates the cisplatin-induced nephrotoxicity associated with apoptosis, lipid metabolism, and oxidative stress. (A) Tail moment assessed by comet assay; 50 cells/condition were analyzed. (B and C) KW6002 attenuates cisplatin-induced renal lipid accumulation, assessed by Red Oil staining. […] Results are the mean±SEM (n=6-9 mice/group). (F-H) KW6002 attenuated cisplatin-induced oxidative stress in RPTEC/hTERT1 cells. (F and G) Gene expression of Nrf2 (F) and HO1 (G). […] Results are the mean±SEM (n=3 independent experiments).
10 μm frozen kidney mouse sections were fixed with ethanol (60%) then incubated for 15 min with Oil Red O Solution (Fisher Biotech) dissolved in isopropanol. After several washes with ddH2O, samples were incubated 3 min with hematoxylin. Lipid droplets are stained in red whereas nuclei appeared blue. […] RPTEC/hTERT cells were fixed with ethanol (60%) then incubated for 15 min with Oil Red O Solution. The cells were washed three times with ddH2O and incubated 3 min with hematoxylin. Coverslips were rinsed with H2O before mounting on microscope slides using glycerol gelatin aqueous slide mounting medium (Sigma). Quantifications were performed blindly using ImageJ software. […] The resulting red color images were quantified using a custom threshold (0.173 for RPTEC/hTERT cells and 0.140 for kidney stainings).

Another test relates to tumor cell transcriptome. In words: Whole transcriptome analysis of LLC1 tumors. In kind it is in vivo, mice. As for the experimental part: RNA-seq libraries (n=5-6/group) were generated from 500 ng of total RNA using Illumina® TruSeq® Stranded mRNA Library Prep Kit v2. Briefly, following purification with poly-T oligo attached magnetic beads, the mRNA was fragmented using divalent cations at 94° C. for 2 min. The cleaved RNA fragments were copied into first-strand cDNA using reverse transcriptase and random primers. […] Surplus PCR primers were further removed by purification using AMPure XP beads (Beckman Coulter), and the final cDNA libraries were checked for quality and quantified using capillary electrophoresis. Sequencing was performed on the Illumina® Genome Hiseq4000 as single-end 50 base reads following Illumina's instructions. Reads were mapped onto the mm 10 assembly of Mus musculus genome using STAR v2.5.3a (72). Only uniquely aligned reads were kept for further analyses. Quantification of gene expression was performed using HTSeq-count v0.6.1p1 (73) and gene annotations from Ensembl releases 90 and 102 and “union” mode. Read counts were normalized across libraries with the method proposed by Ander et al. (74). […]

Experimental for C57BL6/J mice: Animal procedures were performed in 8 to 10 weeks old male C57B16/J mice (Janvier Labs). Mice were fed a laboratory standard diet with water and food ad libitum and were kept under constant environmental conditions with a 12-hour light-dark cycle. […] Three days after this single injection, animals were sacrificed by cervical dislocation (FIG. 1A).
Prior sacrifice by cervical dislocation, retro-orbital blood samples were collected in heparinized tubes and centrifuged for 10 min at 2000 rpm at room temperature. Renal function was assessed by Blood urea nitrogen (BUN) measurement using a AU480 Chemistry Analyzer (Beckman Coulter). At the time of sacrifice, kidneys or LLC1 tumors were harvested and stored in either “RNA later” solution (Thermo Fisher), 4% neutral buffered formalin or snap-frozen in liquid nitrogen.
Formalin-fixed and paraffin-embedded sections (3 μm thick) were stained with Hematoxylin and Eosin (Sigma Aldrich) or Periodic Acid-Schiff (Sigma-Aldrich). Slices were scored by a nephropathologist in a blinded manner. A kidney injury score grading scale from 0 to 5 was used to assess the severity of the injury as follow: 0=no lesions, 1=minimal injury characterized by occurrence of necrosis and debris; 2=mild injury with single cell necrosis, pyknotic cells, and apoptosis; 3=moderate injury characterized by tubular distension, vacuolation, and some cellular debris, 4=severe injury with occasional hyaline casts observed, patchy epithelial necrosis in all segments, loss of epithelial lining; and 5=very severe injury characterized by extensive tubular epithelial necrosis in all segments, loss of epithelial layer from many tubules widespread intraluminal cellular debris, and frequent hyaline casts particularly prominent in the medullary region (67).
Total RNA from kidney samples was extracted with phenol/chloroform and subsequently precipitated in isopropanol as described previously (71). Total RNA from cultured renal cells was extracted using RNeasy Mini kit (Qiagen) following manufacturer's recommendations.
Reverse transcription was performed on 1 μg of RNA using high-capacity cDNA reverse transcription kit (Thermo Fisher), according the manufacturer's recommendation. Real time PCR was performed on a StepOne device using Taqman Gene Expression Master Mix (Thermo Fisher), following manufacturer's recommendations. Expression levels of the following genes were evaluated using comparative CT method (2-deltaCT): Neutrophil Gelatinase Associated Lipocalin (NGAL, Assay IDs Hs00194353_ml and Mm01324470_m1), Kidney Injury Molecule-1 (KIM-1, Assay ID Hs00273334_ml and Mm00506686_m1), Tumor Necrosis Factor alpha (TNFα, Assay ID Hs00174128_m1 and Mm00443258_m1), Interleukin-6 (I16, Assay ID Hs00174131_m1 and Mm00446190_m1), Adora2A Receptor (A2AR, Assay ID Hs00169123_m1 and Mm00802075_m1), Bcl2 associated X (Bax, Assay ID Hs00180269_m1 and Mm00432051_m1), B cell lymphoma 2 (Bcl2, Assay ID Hs00608023_m1 and Mm00477631_m1), Copper transporter receptor 1 (CTR1, Assay ID Hs00741015_m1 and Mm00612987_m1), Organic cation transporter 2 (OCT2, Assay ID Hs00533907 m1 and Mm00457295_m1), ATPase 7A (ATP7A, Assay ID Hs00163707_m1 and Mm00437663_m1), ATPase 7B (ATP7B, Assay ID Hs00163739_m1 and Mm00599675_m1), Multidrug and toxin extrusion ½ (MATE1/2, Assay ID Hs00979028 m1/Hs00945652_m1 and Assay ID Mm00840361_m1/Mm02601002_m1), ATP Binding Cassette Subfamily C Member 2 (Abcc2, Assay ID Hs00166123_m1 and Mm00496899_m1) instructions. Transcript levels of PPIA (human Hs99999904_mland mouse sample Mm02342430_m1) were used as endogenous control.

Regarding `CCn1c(=O)c2c(nc(/C=C/c3ccc(OC)c(OC)c3)n2C)n(CC)c1=O` [KW-6002, 8-[(E)-2-(3,4-dimethoxyphenyl)vinyl]-1,3-diethyl-7-methyl-3,7-dihydro-1H-purine-2,6-dione], the “histological lesions (histological score of renal injury)” value in the test with C57BL6/J mice (A model, FIG. 2B) is recorded as “less severe histological lesions”. Moreover, in the test with C57BL6/J mice (A model, kidney), the “mRNA levels of I16, change vs. cisplatin” value is on record as −73.8±5.3% and the “mRNA levels of Tnfα, change” value is listed as −36.0±4.3%. Further, in the test with C57BL6/J mice (A model, kidney mRNA), the “reduction of KIM-1 expression vs. cisplatin” value is on record as −95.2±0.7% and the “reduction of NGAL expression vs. cisplatin” value is on record as −55.5±5.9%. For the same compound, the “reduction of BUN vs. cisplatin” value in the test with C57BL6/J mice (A model: cisplatin 10 mg/kg single i.p., KW-6002 3 mg/kg i.p. daily day-1 to day 2) is listed as −42.9±7.4%. The “lipid accumulation induced by cisplatin” value with RPTEC/hTERT cells is “significantly reduced”. In the test with tumor cell transcriptome (among the 2497), the “selectively modulated genes that were downregulated” value worked out at 1016 genes. In addition, the “genes selectively modulated by cisplatin/KW-6002 co-treatment vs. vehicle” value in the test with tumor cell transcriptome (out of 3923) was 2497 genes.
